Measurements published in PMC8735877, “Flavonoids as tyrosinase inhibitors in in silico and in vitro models: basic framework of SAR using a statistical modelling approach” (Journal of Enzyme Inhibition and Medicinal Chemistry, 2021).
Like-named read-outs stand apart in the source and are kept apart here.

Tests used:
mushroom tyrosinase [1] = biological target: T1, mushroom tyrosinase (Agaricus bisporus, UniProt C7FF04); test: Tyrosinase inhibition assay (L-DOPA oxidation, absorbance at 492 nm); format: biochemical;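 note: enzyme in phosphate buffer, compounds preincubated with enzyme, inhibition computed against blank absorbance, IC50 fitted by nonlinear regression, runs in triplicate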
Protocol: The inhibitory effect on mushroom tyrosinase (TYase) was evaluated using a method reported in the literature with some modifications[21]. This assay was performed in PBS (100 mM, pH = 6.8 in 25 °C). Test samples 1–44 (80 µL) were preincubated with TYase solution (40 µL; 250 U/mL) at 25 °C for 10 min. Then, L-DOPA (80 µL; 0.19 mg/mL) was added, and after an additional 10 min at 25 °C, the absorbance was measured at 492 nm. […] The inhibitory effect was calculated as follows: TYaseInh (%) = [(B−C)/C] x 100 where B and C are the absorbances of the blank and the compounds, respectively. […] All tests were performed in triplicate.
Statistical analysis for IC50 calculations was performed using nonlinear regression using GraphPad Prism 9 (Trail, GraphPad Software, La Jolla, CA, USA). Data were collected as mean ± SD (n = 3), and the significance of differences was analysed using one-way analysis of variance (ANOVA).

mushroom tyrosinase [2] = biological target: T1, mushroom tyrosinase; test: Tyrosinase inhibition kinetic analysis (Lineweaver-Burk and Dixon plots); format: biochemical; details: for Type of inhibition: Lineweaver-Burk plots
Protocol: The enzyme reaction kinetics of these compounds were measured by constructing Lineweaver-Burk plots of inverse velocities (1/V), contrary to the inverse of substrate concentration (1/S)[22]^,[23]. Preincubations and measurement times were performed using the same protocol as described above. The enzyme concentration (250 U/mL) was kept constant in the presence of substrate solutions (L-DOPA) between 0.25 and 2 mM in all kinetic studies. The inhibitor concentrations for all test compounds were 0, 25, and 50 µM. The inhibitory types and inhibitory constant (Ki) values were described by 1/V versus inhibitor concentration plots (Dixon plot).

[3] = substrate L-DOPA, PBS pH 6.8, 25 °C, highest tested concentration 500 µM, mean ± SD, n = 3, read-out: IC50
[4] = Dixon plot, L-DOPA 0.25-2 mM, inhibitor 0, 25, 50 µM, ± SD, triplicate, read-out: Ki
[5] = L-DOPA 0.25-2 mM, inhibitor 0, 25, 50 µM

T1 sequence (C7FF04 1-392): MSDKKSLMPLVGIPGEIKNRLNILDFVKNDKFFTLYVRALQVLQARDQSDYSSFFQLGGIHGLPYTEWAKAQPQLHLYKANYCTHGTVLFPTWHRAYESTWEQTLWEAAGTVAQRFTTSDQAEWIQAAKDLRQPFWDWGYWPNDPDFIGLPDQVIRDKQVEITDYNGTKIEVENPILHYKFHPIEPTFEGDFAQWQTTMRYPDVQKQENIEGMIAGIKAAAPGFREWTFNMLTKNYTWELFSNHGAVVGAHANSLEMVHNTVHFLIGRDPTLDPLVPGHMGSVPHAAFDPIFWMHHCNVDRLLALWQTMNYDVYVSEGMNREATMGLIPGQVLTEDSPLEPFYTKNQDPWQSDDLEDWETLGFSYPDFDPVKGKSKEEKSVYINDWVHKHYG

| SMILES | IC50 (mushroom tyrosinase [1]) [µM] | IC50 (mushroom tyrosinase [1]; [3]) [µM] | also measured |
| --- | --- | --- | --- |
| COc1ccc(C2CC(=O)c3c(O)cc(OC)cc3O2)cc1 (stereo not drawn) [Compound 2, 7,4′-dimethoxynaringenin] | > 500 | – | – |
| O=C1CC(c2ccc(O)c(O)c2)Oc2c1ccc(O)c2O (stereo not drawn) [Compound 4, isookanin] | – | 58.43 ± 0.38 | Ki (mushroom tyrosinase [2]; [4]): 18.6 ± 0.53 µM; Type of inhibition (mushroom tyrosinase [2]; [5]): non-competitive |
| COc1ccc([C@@H]2CC(=O)c3c(O)cc(O)cc3O2)cc1O [Compound 5, hesperetin] | 237 ± 2.63 | – | – |
| COc1ccc(C2CC(=O)c3c(O)cc(OC4OC(COC5OC(C)C(O)C(O)C5O)C(O)C(O)C4O)cc3O2)cc1O (stereo not drawn) [Compound 6, hesperetin 7-O-rutinoside] | 131 ± 1.4 | – | – |
| O=c1cc(-c2ccccc2)oc2cccc(O)c12 [Compound 7, 5-hydroxyflavone] | 120 ± 1.48 | – | – |
| COc1ccccc1-c1cc(=O)c2c(O)cccc2o1 [Compound 8, 5-hydroxy-2′-methoxyflavone] | 122.1 ± 1.19 | – | – |
| COc1cccc(OC)c1-c1cc(=O)c2c(O)cccc2o1 [Compound 9, 5-hydroxy-2′,6′-dimethoxyflavone] | 127 ± 1.4 | – | – |
| O=c1cc(-c2ccccc2)oc2cc(O)cc(O)c12 [Compound 11, chrysin] | 129.4 ± 1.13 | – | – |
| O=c1cc(-c2ccc(O)cc2)oc2cc(O)cc(O)c12 [Compound 12, apigenin] | 160.5 ± 1.44 | – | – |
| O=c1cc(-c2ccc(O)cc2)oc2cc(OC3OC(CO)C(O)C(O)C3O)cc(O)c12 (stereo not drawn) [Compound 13, apigenin 7-O-glucoside] | 323.2 ± 1.48 | – | – |
| O=c1cc(-c2ccc(O)cc2)oc2c([C@@H]3O[C@H](CO)[C@@H](O)[C@H](O)[C@H]3O)c(O)cc(O)c12 [Compound 14, apigenin 8-C-glucoside] | 133 ± 1.83 | – | – |
| COc1ccc(-c2cc(=O)c3c(O)cc(O)cc3o2)cc1 [Compound 16, acacetin] | 207.9 ± 1.35 | – | – |
| O=c1cc(-c2ccc(O)c(O)c2)oc2cc(O)cc(O)c12 [Compound 17, luteolin] | – | 58.9 ± 0.78 | Ki (mushroom tyrosinase [2]; [4]): 11.3 ± 0.77 µM; Type of inhibition (mushroom tyrosinase [2]; [5]): non-competitive |
| O=c1cc(-c2ccc(O)c(O)c2)oc2cc(OC3OC(CO)C(O)C(O)C3O)cc(O)c12 (stereo not drawn) [Compound 18, luteolin 7-O-glucoside] | 415 ± 2.38 | – | – |
| O=c1cc(-c2ccc(O)c(O)c2)oc2cc(O)c([C@@H]3O[C@H](CO)[C@@H](O)[C@H](O)[C@H]3O)c(O)c12 [Compound 20, luteolin-6-C-glucoside] | 133 ± 2.32 | – | – |
| COc1ccc(-c2cc(=O)c3c(O)cc(O)c(C4OC[C@@H](O)[C@H](O)[C@H]4OC4O[C@H](CO)[C@@H](O)[C@H](O)[C@H]4O)c3o2)cc1O (stereo partly drawn) [Compound 22, 5,7,3′-trihydroxy-4′-methoxyflavone-8-C-xylopyranoside-2"-O-glucoside] | – | > 500 | – |
| CC(=O)Oc1ccc(-c2cc(=O)c3c(O)cc(O)c(C4OC[C@@H](O)[C@H](O)[C@H]4OC4O[C@H](CO)[C@@H](O)[C@H](O)[C@H]4O)c3o2)cc1O (stereo partly drawn) [Compound 23, 5,7,3′-trihydroxy-4′-acetoxyflavone-8-C-xylopyranoside-2"-O-glucoside] | – | > 500 | – |
| COc1cc(-c2cc(=O)c3c(O)cc(O)c(C4OC[C@@H](O)[C@H](O)[C@H]4OC4O[C@H](CO)[C@@H](OC(C)=O)[C@H](O)[C@H]4O)c3o2)ccc1OC(C)=O (stereo partly drawn) [Compound 25, 5,7-dihydroxy-3′-methoxy-4′-acetoxyflavone-8-C-xylopyranoside-2"-O-(4′"-acetoxy)-glucoside] | – | > 500 | – |

| SMILES | IC50 (mushroom tyrosinase [1]) [µM] | IC50 (mushroom tyrosinase [1]; [3]) [µM] | also measured |
| --- | --- | --- | --- |
| O=c1c(O)c(-c2ccc(O)cc2)oc2cc(O)cc(O)c12 [Compound 26, kaempferol] | – | 65.1 ± 1.09 | Ki (mushroom tyrosinase [2]; [4]): 40.2 ± 0.46 µM; Type of inhibition (mushroom tyrosinase [2]; [5]): competitive |
| COc1c(O)cc(O)c2c(=O)c(O)c(-c3ccc(O)cc3)oc12 [Compound 27, 8-methoxykaempferol] | – | 290.5 ± 1.19 | – |
| COc1cc(O)c2c(=O)c(OC)c(-c3ccc(O)cc3)oc2c1 [Compound 28, kumatakenin] | – | > 500 | – |
| O=c1c(O[C@@H]2O[C@H](CO)[C@@H](O)[C@H](O)[C@H]2O)c(-c2ccc(O)cc2)oc2cc(O)cc(O)c12 [Compound 29, kaempferol 3-O-glucoside] | 481.5 ± 1.73 | – | – |
| O=C(O)C1OC(Oc2c(-c3ccc(O)cc3)oc3cc(O)cc(O)c3c2=O)C(O)C(O)C1O (stereo not drawn) [Compound 30, kaempferol 3-O-glucuronide] | – | 270 ± 1.23 | – |
| O=c1c(OC2OC(CO)C(O)C(O)C2O)c(-c2ccc(O)cc2)oc2cc(O)cc(O)c12 (stereo not drawn) [Compound 31, kaempferol 3-O-galactoside] | 186.9 ± 1.09 | – | – |
| O=C(/C=C/c1ccc(O)cc1)OC[C@H]1O[C@@H](Oc2c(-c3ccc(O)cc3)oc3cc(O)cc(O)c3c2=O)[C@H](O)[C@@H](O)[C@@H]1O [Compound 32, kaempferol 3-O-(6″-O-trans-p-coumaroyl)-glucoside] | 78.5 ± 0.84 | – | Ki (mushroom tyrosinase [2]): 9.83 ± 0.57 µM; Type of inhibition (mushroom tyrosinase [2]; [5]): competitive |
| COc1ccc(-c2oc3cc(O)cc(O)c3c(=O)c2OC)cc1 [Compound 33, ermanin] | – | 231.7 ± 1.17 | – |
| COc1ccc(-c2oc3c(CC=C(C)C)c(O[C@@H]4O[C@H](CO)[C@@H](O)[C@H](O)[C@H]4O)cc(O)c3c(=O)c2O[C@@H]2O[C@@H](C)[C@H](O)[C@@H](O)[C@H]2O)cc1 [Compound 34, icariin] | – | 150 ± 1.84 | – |
| O=c1c(O)c(-c2ccc(O)c(O)c2)oc2cc(O)cc(O)c12 [Compound 35, quercetin] | – | – | Type of inhibition (mushroom tyrosinase [2]; [5]): competitive |
| O=C(O)C1OC(Oc2c(-c3ccc(O)c(O)c3)oc3cc(O)cc(O)c3c2=O)C(O)C(O)C1O (stereo not drawn) [Compound 36, quercetin 3-O-glucuronide] | 220.1 ± 1.14 | – | – |
| C[C@@H]1O[C@@H](OC[C@H]2O[C@@H](Oc3c(-c4ccc(O)c(O)c4)oc4cc(O)cc(O)c4c3=O)[C@H](O)[C@@H](O)[C@@H]2O)[C@H](O)[C@H](O)[C@H]1O [Compound 37, quercetin 3-O-rutinoside] | 141.7 ± 1.3 | – | – |
| CC1OC(OCC2OC(Oc3c(-c4ccc(O)c(O)c4)oc4cc(OC5OC(CO)C(O)C(O)C5O)cc(O)c4c3=O)C(O)C(O)C2O)C(O)C(O)C1O (stereo not drawn) [Compound 38, quercetin 3-O-rutinoside-7-O-glucoside] | – | 148 ± 1.57 | – |
| O=c1c(O)c(-c2cc(O)c(O)c(O)c2)oc2cc(O)ccc12 [Compound 41, robinetin] | 63.1 ± 0.85 | – | Ki (mushroom tyrosinase [2]): 27.4 ± 0.62 µM; Type of inhibition (mushroom tyrosinase [2]; [5]): non-competitive |
| O=c1c(O)c(-c2cc(O)c(O)c(O)c2)oc2cc(O)cc(O)c12 [Compound 42, myricetin] | 100 ± 1.86 | – | – |
| O=c1c(-c2ccc(O)cc2)coc2cc(O)ccc12 [Compound 43, daidzein] | > 500 | – | – |
| O=c1c(-c2ccc(O)cc2)coc2cc(O)cc(O)c12 [Compound 44, genistein] | > 500 | – | – |
